Assays:
[1] = molecular target: FGFR1 (Homo sapiens, UniProt P11362); assay: Kinase assay, FGFR1 (33P-ATP incorporation or luciferase-coupled ATP consumption); format: biochemical
Method: (§1) Kinase assays were performed by measurement of incorporation of γ-^33P ATP into immobilized myelin basic protein (MBP). […] Plates were washed 3× with 100 μl TBS. […] Compound dilutions were performed in DMSO and added to assay wells to a final DMSO concentration of 1%. Each data point was measured in duplicate, and at least two duplicate assays were performed for each individual compound determination. Enzyme was added to final concentrations of 10 nM or 20 nM, for example. A mixture of unlabeled ATP and γ-^33P ATP was added to start the reaction (2×10^6 cpm of γ-^33P ATP per well (3000 Ci/mmole) and either 10 μM or 30 μM unlabeled ATP, typically. The reactions were carried out for 1 hour at room temperature with shaking. Plates were washed 7× with TBS, followed by the addition of 50 μl/well scintillation fluid (Wallac). Plates were read using a Wallac Trilux counter. This is only one format of such assays, various other formats are possible, as known to one of ordinary skill in the art.
(§2) Tyrosine kinase activity is determined by 1) measurement of kinase-dependent ATP consumption by in the presence of a generic substrate such as, polyglutamic acid, tyrosine, 4:1 (pEY), by luciferase/luciferin-mediated chemiluminescence or; 2) incorporation of radioactive phosphate derived from ^33P-ATP into a generic substrate which has been adsorbed onto the well surface of polystyrene microtiter plates. Phosphorylated substrate products are quantified by scintillation spectrometry.
(§3) Kinase activity and compound inhibition are investigated using one or more assay formats. The ATP concentrations for each assay are selected to be close to the Michaelis-Menten constant (KM) for each individual kinase. Dose-response experiments are performed at 10 different inhibitor concentrations in a 384-well plate format. […] Exemplary kinase assays are described below. KDR Assay

[2] = molecular target: IRK (Homo sapiens, UniProt P06213); assay: Kinase assay, IRK; format: biochemical
Method: as §3

[3] = molecular target: EGFR (Homo sapiens, UniProt P00533); assay: Kinase assay, EGFR (33P-ATP incorporation or luciferase-coupled ATP consumption); format: biochemical
Method: as §1, §2, §3

[4] = molecular target: EphA2 (Homo sapiens, UniProt P29317); assay: Kinase assay, EphA2 (33P-ATP incorporation or luciferase-coupled ATP consumption); format: biochemical
Method: as §1, §2, §3

[5] = molecular target: PDGFR alpha (Homo sapiens, UniProt P16234); assay: Kinase assay, PDGFR alpha (33P-ATP incorporation or luciferase-coupled ATP consumption); format: biochemical; settings: read-out: PDGF-R-A IC50
Method: as §1, §2, §3

[6] = molecular target: Fyn (Homo sapiens, UniProt P06241); assay: Kinase assay, Fyn; format: biochemical
Method: as §3

[7] = molecular target: T1, KDR (baculovirus expressed human KDR kinase domain D807-V1356) (Homo sapiens, UniProt P35968); assay: biochemical
T1 construct: human KDR kinase domain D807-V1356; host or cells: baculovirus expression system
Method: as §3
KDR biochemical activity was assessed using a Luciferase-Coupled Chemiluminescent Kinase assay (LCCA) format. Kinase activity was measured as the percent ATP remaining following the kinase reaction. Remaining ATP was detected by luciferase-luciferin-coupled chemiluminescence. […] The mixture is incubated at ambient temperature for 4 hours after which 20 uL luciferase-luciferin mix is added and the chemiluminescent signal read using a Wallac Victor^2 reader.

T1 sequence (P35968 807-1356): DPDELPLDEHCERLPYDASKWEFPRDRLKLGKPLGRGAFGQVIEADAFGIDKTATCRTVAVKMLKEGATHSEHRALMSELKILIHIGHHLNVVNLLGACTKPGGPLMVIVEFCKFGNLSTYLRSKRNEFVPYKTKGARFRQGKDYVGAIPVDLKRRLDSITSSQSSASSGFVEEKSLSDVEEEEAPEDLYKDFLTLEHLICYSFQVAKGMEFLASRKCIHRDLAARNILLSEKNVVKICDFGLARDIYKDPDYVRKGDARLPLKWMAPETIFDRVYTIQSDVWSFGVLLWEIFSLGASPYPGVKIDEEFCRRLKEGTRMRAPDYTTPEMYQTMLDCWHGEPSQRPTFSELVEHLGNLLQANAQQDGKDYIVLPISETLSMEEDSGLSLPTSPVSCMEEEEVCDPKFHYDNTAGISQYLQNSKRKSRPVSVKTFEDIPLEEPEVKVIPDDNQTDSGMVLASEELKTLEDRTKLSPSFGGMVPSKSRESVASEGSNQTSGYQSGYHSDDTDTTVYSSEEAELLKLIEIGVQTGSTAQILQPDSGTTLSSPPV
Chain of EphA2 (P29317 24-976, species assumed): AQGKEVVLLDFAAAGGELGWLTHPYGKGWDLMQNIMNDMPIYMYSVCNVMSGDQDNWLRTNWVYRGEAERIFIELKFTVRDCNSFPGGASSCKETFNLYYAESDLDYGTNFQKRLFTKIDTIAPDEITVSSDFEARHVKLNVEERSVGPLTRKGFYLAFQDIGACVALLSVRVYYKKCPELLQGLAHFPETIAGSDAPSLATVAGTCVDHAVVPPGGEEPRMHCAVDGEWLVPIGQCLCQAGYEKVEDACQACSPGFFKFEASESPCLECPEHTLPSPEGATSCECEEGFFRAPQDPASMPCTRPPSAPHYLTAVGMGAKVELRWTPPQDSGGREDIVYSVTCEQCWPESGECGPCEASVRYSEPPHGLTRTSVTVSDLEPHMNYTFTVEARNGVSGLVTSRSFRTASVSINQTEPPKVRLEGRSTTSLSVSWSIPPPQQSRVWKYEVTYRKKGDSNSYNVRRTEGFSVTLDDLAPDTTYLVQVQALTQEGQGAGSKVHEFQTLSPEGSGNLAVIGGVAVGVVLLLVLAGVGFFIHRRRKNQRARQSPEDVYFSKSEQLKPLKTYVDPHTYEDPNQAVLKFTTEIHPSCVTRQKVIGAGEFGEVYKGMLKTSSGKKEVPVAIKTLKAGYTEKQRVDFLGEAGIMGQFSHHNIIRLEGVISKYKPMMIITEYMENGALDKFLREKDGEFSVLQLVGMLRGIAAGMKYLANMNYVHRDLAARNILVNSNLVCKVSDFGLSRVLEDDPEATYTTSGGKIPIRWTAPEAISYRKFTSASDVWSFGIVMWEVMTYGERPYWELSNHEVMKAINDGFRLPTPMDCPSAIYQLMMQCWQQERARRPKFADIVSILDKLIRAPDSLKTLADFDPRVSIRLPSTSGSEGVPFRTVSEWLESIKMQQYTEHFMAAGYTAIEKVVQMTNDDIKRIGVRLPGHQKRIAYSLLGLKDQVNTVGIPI
Chain of Fyn (P06241 whole entry, species assumed): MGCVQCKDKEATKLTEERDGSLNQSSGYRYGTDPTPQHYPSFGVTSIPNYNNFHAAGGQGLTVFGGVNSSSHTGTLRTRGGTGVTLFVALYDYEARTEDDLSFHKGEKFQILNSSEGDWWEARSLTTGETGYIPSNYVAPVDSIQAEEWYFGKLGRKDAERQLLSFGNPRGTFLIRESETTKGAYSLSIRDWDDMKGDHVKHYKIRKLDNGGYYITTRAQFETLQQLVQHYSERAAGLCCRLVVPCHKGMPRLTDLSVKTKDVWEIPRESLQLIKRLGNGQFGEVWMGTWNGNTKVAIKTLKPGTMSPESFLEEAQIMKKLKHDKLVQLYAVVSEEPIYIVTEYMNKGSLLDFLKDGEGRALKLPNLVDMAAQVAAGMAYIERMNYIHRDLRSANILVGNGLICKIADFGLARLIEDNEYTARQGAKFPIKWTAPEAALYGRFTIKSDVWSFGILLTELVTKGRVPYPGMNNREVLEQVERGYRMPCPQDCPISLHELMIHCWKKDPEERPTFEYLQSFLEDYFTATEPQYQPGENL
Chain of EGFR (P00533 25-1210, species assumed): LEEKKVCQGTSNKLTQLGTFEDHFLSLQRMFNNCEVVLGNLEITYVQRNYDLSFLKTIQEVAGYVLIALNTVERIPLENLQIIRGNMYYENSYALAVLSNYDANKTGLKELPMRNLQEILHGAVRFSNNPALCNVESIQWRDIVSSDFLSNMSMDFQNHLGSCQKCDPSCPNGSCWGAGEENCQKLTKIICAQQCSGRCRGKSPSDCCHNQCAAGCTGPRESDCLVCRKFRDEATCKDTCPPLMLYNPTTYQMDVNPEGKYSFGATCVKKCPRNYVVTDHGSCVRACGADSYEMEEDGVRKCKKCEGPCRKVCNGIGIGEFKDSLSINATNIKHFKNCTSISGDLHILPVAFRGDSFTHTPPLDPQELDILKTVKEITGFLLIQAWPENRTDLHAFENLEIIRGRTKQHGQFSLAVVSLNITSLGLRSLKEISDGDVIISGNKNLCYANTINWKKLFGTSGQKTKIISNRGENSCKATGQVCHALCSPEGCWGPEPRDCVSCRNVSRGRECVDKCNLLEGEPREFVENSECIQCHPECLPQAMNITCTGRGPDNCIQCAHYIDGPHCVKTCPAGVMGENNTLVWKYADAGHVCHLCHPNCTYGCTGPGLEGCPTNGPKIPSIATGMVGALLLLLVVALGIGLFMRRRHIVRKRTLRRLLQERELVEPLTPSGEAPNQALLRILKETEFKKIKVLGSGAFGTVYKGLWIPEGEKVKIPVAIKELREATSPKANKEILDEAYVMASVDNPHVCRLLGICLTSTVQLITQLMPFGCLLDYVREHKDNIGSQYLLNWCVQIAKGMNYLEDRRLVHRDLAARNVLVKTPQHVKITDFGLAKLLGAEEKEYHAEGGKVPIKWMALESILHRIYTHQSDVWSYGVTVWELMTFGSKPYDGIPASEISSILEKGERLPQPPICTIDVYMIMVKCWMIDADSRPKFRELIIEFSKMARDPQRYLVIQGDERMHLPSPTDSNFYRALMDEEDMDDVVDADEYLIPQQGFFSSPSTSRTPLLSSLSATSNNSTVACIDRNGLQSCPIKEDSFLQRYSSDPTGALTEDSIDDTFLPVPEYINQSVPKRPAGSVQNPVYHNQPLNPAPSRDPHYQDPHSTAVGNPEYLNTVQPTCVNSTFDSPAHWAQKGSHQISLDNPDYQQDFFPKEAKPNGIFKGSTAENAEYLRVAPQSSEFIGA
Chain of IRK (P06213 28-1382): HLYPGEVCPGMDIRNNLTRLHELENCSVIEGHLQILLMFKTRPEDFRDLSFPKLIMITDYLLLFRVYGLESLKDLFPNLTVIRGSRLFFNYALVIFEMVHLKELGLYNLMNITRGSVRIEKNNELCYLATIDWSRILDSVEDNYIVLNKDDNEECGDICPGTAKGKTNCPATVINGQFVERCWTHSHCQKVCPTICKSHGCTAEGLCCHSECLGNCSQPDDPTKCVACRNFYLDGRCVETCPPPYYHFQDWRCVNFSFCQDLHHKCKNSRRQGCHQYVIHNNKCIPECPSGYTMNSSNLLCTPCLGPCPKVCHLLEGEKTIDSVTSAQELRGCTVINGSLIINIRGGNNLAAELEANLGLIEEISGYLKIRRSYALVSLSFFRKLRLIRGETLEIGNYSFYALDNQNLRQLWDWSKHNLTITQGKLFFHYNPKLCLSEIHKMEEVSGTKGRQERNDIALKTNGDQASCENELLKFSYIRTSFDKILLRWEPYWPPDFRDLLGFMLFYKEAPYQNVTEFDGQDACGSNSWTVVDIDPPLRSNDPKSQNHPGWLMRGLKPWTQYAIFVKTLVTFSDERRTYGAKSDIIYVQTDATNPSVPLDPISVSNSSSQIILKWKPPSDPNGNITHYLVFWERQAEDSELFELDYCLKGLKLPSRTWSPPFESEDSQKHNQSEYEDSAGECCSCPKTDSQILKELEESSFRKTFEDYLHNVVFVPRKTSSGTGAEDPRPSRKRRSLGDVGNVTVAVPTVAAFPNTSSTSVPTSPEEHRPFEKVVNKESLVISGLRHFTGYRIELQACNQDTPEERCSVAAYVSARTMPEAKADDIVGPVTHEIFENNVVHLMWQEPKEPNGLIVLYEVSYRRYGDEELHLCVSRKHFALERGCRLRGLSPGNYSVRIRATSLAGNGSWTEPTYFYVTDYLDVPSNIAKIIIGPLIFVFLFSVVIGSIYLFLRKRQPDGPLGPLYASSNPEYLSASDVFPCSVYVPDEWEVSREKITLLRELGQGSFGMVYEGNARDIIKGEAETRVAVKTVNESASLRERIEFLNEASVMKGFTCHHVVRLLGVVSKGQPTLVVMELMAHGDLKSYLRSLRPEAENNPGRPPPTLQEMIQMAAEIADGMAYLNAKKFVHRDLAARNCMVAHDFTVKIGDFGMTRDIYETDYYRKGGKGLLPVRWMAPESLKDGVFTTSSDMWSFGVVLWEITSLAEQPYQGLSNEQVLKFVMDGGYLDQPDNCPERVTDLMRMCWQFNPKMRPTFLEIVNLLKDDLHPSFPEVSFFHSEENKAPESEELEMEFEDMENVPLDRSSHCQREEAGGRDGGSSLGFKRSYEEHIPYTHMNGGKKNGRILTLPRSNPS

Compound | IC50 [1] | IC50 [2] | IC50 [3] | IC50 [4] | IC50 [5] | IC50 [6] | IC50 [7]
COCCN1CCC(Nc2ccc3c(c2)/C(=C(\c2cccc(F)c2)c2nc(C)c[nH]2)C(=O)N3)CC1 [Entry 70, (3Z)-3-[(3-fluorophenyl)(4-methyl-1H-imidazol-2-yl)methylidene]-5-({1-[2-(methyloxy)ethyl]piperidin-4-yl}amino)-1,3-dihydro-2H-indol-2-one] | < 0.05 µM | 0.5 to 5 µM | 0.05 to 0.5 µM | 0.05 to 0.5 µM | < 0.05 µM | < 0.05 µM | < 0.05 µM
COCCN1CCC(Nc2ccc3c(c2)/C(=C(\c2ccc(C(F)(F)F)cc2)c2ncc[nH]2)C(=O)N3)CC1 [Entry 71] | < 0.05 µM | > 5 µM | > 5 µM | 0.5 to 5 µM | < 0.05 µM | 0.05 to 0.5 µM | < 0.05 µM
COCCN1CCC(Nc2ccc3c(c2)/C(=C(\c2ccccc2)c2nc4cc(Cl)ccc4[nH]2)C(=O)N3)CC1 [Entry 72] | < 0.05 µM | > 5 µM | > 5 µM | 0.5 to 5 µM | < 0.05 µM | 0.05 to 0.5 µM | < 0.05 µM
COCCN1CCC(Nc2ccc3c(c2)/C(=C(\c2cc(F)cc(F)c2)c2ncc[nH]2)C(=O)N3)CC1 [Entry 75, (3Z)-3-[(3,5-difluorophenyl)(1H-imidazol-2-yl)methylidene]-5-({1-[2-(methyloxy)ethyl]piperidin-4-yl}amino)-1,3-dihydro-2H-indol-2-one] | < 0.05 µM | > 5 µM | 0.05 to 0.5 µM | 0.5 to 5 µM | < 0.05 µM | < 0.05 µM | < 0.05 µM
COCCN1CCC(Nc2ccc3c(c2)/C(=C(\c2cc(F)cc(F)c2)c2nc(C)c[nH]2)C(=O)N3)CC1 [Entry 76] | < 0.05 µM | 0.5 to 5 µM | 0.05 to 0.5 µM | 0.5 to 5 µM | < 0.05 µM | < 0.05 µM | < 0.05 µM
COCCN1CCC(Nc2ccc3c(c2)/C(=C(\c2ccc(C)cc2)c2nc(C)c[nH]2)C(=O)N3)CC1 [Entry 77, (3Z)-3-[(4-methyl-1H-imidazol-2-yl)(4-methylphenyl)methylidene]-5-({1-[2-(methyloxy)ethyl]piperidin-4-yl}amino)-1,3-dihydro-2H-indol-2-one] | < 0.05 µM | 0.5 to 5 µM | 0.05 to 0.5 µM | 0.05 to 0.5 µM | < 0.05 µM | < 0.05 µM | < 0.05 µM
COCCN1CCC(Nc2ccc3c(c2)/C(=C(\c2ccc(F)cc2)c2ncc[nH]2)C(=O)N3)CC1 [Entry 78] | 0.05 to 0.5 µM | > 5 µM | > 5 µM | 0.5 to 5 µM | < 0.05 µM | 0.05 to 0.5 µM | < 0.05 µM
COCCN1CCC(Nc2ccc3c(c2)/C(=C(\c2ccc(F)c(F)c2)c2ncc[nH]2)C(=O)N3)CC1 [Entry 79] | 0.05 to 0.5 µM | > 5 µM | > 5 µM | 0.5 to 5 µM | < 0.05 µM | 0.05 to 0.5 µM | < 0.05 µM
COCCN1CCC(Nc2ccc3c(c2)/C(=C(\c2ccc(F)c(Cl)c2)c2ncc[nH]2)C(=O)N3)CC1 [Entry 80] | 0.05 to 0.5 µM | > 5 µM | > 5 µM | 0.5 to 5 µM | 0.05 to 0.5 µM | 0.05 to 0.5 µM | < 0.05 µM
O=C1Nc2ccc(NC3CCNCC3)cc2/C1=C(\c1cccc(F)c1)c1ncc[nH]1 [Entry 81, (3Z)-3-[(3-fluorophenyl)(1H-imidazol-2-yl)methylidene]-5-(piperidin-4-ylamino)-1,3-dihydro-2H-indol-2-one] | < 0.05 µM | 0.5 to 5 µM | > 5 µM | 0.05 to 0.5 µM | < 0.05 µM | < 0.05 µM | < 0.05 µM
O=C1Nc2ccc(NC3CCN(CCN4CCCCC4)CC3)cc2/C1=C(\c1cccc(F)c1)c1ncc[nH]1 [Entry 82] | 0.05 to 0.5 µM | > 5 µM | > 5 µM | 0.5 to 5 µM | 0.05 to 0.5 µM | 0.05 to 0.5 µM | 0.05 to 0.5 µM
O=C1Nc2ccc(NC3CCN(CCN4CCOCC4)CC3)cc2/C1=C(\c1cccc(F)c1)c1ncc[nH]1 [Entry 83] | < 0.05 µM | > 5 µM | > 5 µM | 0.5 to 5 µM | < 0.05 µM | 0.05 to 0.5 µM | < 0.05 µM
CCN(CC)CCN1CCC(Nc2ccc3c(c2)/C(=C(\c2cccc(F)c2)c2ncc[nH]2)C(=O)N3)CC1 [Entry 84, (3Z)-5-({1-[2-(diethylamino)ethyl]piperidin-4-yl}amino)-3-[(3-fluorophenyl)(1H-imidazol-2-yl)methylidene]-1,3-dihydro-2H-indol-2-one] | 0.05 to 0.5 µM | > 5 µM | > 5 µM | 0.5 to 5 µM | 0.05 to 0.5 µM | 0.05 to 0.5 µM | 0.05 to 0.5 µM
O=C1Nc2ccc(NC3CCN(CCN4CCCC4)CC3)cc2/C1=C(\c1cccc(F)c1)c1ncc[nH]1 [Entry 85, (3Z)-3-[(3-fluorophenyl)(1H-imidazol-2-yl)methylidene]-5-{[1-(2-pyrrolidin-1-ylethyl)piperidin-4-yl]amino}-1,3-dihydro-2H-indol-2-one] | 0.05 to 0.5 µM | > 5 µM | > 5 µM | 0.5 to 5 µM | < 0.05 µM | 0.05 to 0.5 µM | < 0.05 µM
Cc1ccc(/C(=C2/C(=O)Nc3ccc(NC4CCN(C)CC4)cc32)c2ncc[nH]2)cc1 [Entry 86] | < 0.05 µM | 0.5 to 5 µM | 0.05 to 0.5 µM | 0.05 to 0.5 µM | < 0.05 µM | < 0.05 µM | < 0.05 µM
COCCN1CCC(Nc2ccc3c(c2)/C(=C(\c2cccc(F)c2)c2ncn[nH]2)C(=O)N3)CC1 [Entry 87] | 0.05 to 0.5 µM | > 5 µM | > 5 µM | > 5 µM | 0.05 to 0.5 µM | > 5 µM | 0.05 to 0.5 µM
CCOC(=O)c1[nH]c(/C(=C2\C(=O)Nc3ccc(NC4CCN(CCOC)CC4)cc32)c2cccc(F)c2)nc1C [Entry 88, ethyl 2-{(Z)-(3-fluorophenyl)[5-({1-[2-(methyloxy)ethyl]piperidin-4-yl}amino)-2-oxo-1,2-dihydro-3H-indol-3-ylidene]methyl}-4-methyl-1H-imidazole-5-carboxylate] | 0.05 to 0.5 µM | > 5 µM | > 5 µM | > 5 µM | < 0.05 µM | 0.05 to 0.5 µM | 0.05 to 0.5 µM
COCCN1CCC(Nc2ccc3c(c2)/C(=C(\c2ccccc2)c2ncc[nH]2)C(=O)N3)CC1 [Entry 89] | < 0.05 µM | 0.5 to 5 µM | > 5 µM | 0.5 to 5 µM | < 0.05 µM | < 0.05 µM | < 0.05 µM
COCCN1CCC(Nc2ccc3c(c2)/C(=C(\c2ccc(OC)cc2)c2ncc[nH]2)C(=O)N3)CC1 [Entry 90] | 0.05 to 0.5 µM | > 5 µM | > 5 µM | 0.5 to 5 µM | < 0.05 µM | < 0.05 µM | < 0.05 µM
COCCN1CCC(Nc2ccc3c(c2)/C(=C(\c2ccc(Cl)cc2)c2ncc[nH]2)C(=O)N3)CC1 [Entry 91, (3Z)-3-[(4-chlorophenyl)(1H-imidazol-2-yl)methylidene]-5-({1-[2-(methyloxy)ethyl]piperidin-4-yl}amino)-1,3-dihydro-2H-indol-2-one] | < 0.05 µM | 0.5 to 5 µM | > 5 µM | 0.5 to 5 µM | < 0.05 µM | < 0.05 µM | < 0.05 µM
